This passage reports IC50 and Selectivity ratio results from ChEMBL document CHEMBL4725475, “Discovery of Potent and Selective 7-Azaindole Isoindolinone-Based PI3Kγ Inhibitors” (ACS Med Chem Lett, 2020).

SMILES strings stand for the structures. Bounds are passed on as bounds.

The target in experiment [1] is T1, Phosphatidylinositol 4,5-bisphosphate 3-kinase catalytic subunit gamma isoform (Homo sapiens, UniProt P48736). Put plainly: Inhibition of PI3K p120gamma (unknown origin) using phosphatidylinositol 4,5-bisphosphate as substrate in presence of ATP incubated for 60 mins by ADP-Glo assay. (In general: ADP-Glo turns the ADP formed in a reaction into a luminescent signal.)

For experiment [2], the species on record is Homo sapiens. Put plainly: Selectivity index, ratio of inhibition for PI3Kalpha (unknown origin) to inhibition for PI3K p120 gamma (unknown origin) using phosphatidylinositol 4,5-bisphosphate as substrate in presence of ATP incubated for 60 mins by ADP-Glo assay.
The species entered for experiment [3] is Homo sapiens. Put plainly: Selectivity index, ratio of inhibition for PI3Kdelta (unknown origin) to inhibition for PI3K p120 gamma (unknown origin) using phosphatidylinositol 4,5-bisphosphate as substrate in presence of ATP incubated for 60 mins by ADP-Glo assay.
In experiment [4] the target is T1, Phosphatidylinositol 4,5-bisphosphate 3-kinase catalytic subunit gamma isoform. Nature of the experiment: Inhibition of PI3Kgamma in human THP-1 cells assessed as reduction in Akt phosphorylation at S473 residue incubated for 60 mins measured after 120 mins by alphalisa assay. It is filed as cell-based. (In general: Bead proximity is the source of the signal in Alpha formats.)

T1 sequence (P48736 whole entry, canonical isoform): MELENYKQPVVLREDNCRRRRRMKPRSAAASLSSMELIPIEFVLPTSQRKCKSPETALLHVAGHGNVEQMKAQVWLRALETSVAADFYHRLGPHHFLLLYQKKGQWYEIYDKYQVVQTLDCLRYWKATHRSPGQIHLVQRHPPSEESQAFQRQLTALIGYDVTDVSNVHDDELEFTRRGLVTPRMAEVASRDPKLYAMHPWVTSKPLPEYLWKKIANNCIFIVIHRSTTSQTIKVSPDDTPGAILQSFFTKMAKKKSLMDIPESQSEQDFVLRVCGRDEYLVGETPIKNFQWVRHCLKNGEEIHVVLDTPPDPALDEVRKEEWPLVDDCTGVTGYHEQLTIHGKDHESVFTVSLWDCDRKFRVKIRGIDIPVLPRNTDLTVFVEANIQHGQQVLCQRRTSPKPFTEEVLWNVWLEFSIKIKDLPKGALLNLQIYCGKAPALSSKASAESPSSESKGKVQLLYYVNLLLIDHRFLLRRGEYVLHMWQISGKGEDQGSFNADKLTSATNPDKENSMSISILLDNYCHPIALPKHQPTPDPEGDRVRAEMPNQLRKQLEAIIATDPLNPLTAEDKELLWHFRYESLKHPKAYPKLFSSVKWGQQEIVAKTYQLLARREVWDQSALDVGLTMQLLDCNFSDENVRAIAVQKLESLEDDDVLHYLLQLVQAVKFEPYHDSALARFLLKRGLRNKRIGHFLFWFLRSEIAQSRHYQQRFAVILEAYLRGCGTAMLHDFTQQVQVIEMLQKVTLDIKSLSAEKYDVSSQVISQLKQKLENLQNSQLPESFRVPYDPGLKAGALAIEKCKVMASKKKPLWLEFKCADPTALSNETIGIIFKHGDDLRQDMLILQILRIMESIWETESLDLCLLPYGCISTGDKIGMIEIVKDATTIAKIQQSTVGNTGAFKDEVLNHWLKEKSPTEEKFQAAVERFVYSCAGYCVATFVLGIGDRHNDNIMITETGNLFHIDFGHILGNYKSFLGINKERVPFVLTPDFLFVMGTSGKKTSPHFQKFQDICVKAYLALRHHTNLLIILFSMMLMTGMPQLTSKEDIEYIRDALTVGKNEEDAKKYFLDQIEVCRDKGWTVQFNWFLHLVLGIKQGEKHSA

As to `Cc1cc(-c2cnc3[nH]cc(-c4cccc(C(=O)O)c4)c3c2)cc2c1C(=O)N([C@@H](C)C1CC1)C2`, the 50% inhibitory concentration (IC50) (commonly the concentration at which inhibition is half-maximal) turned out to be 2.7 nM in experiment [1] and 110 nM in experiment [4]. Besides, the Selectivity ratio worked out at 321 in the experiment filed under Homo sapiens [2] and 772 in the experiment listed under Homo sapiens [3].
Taken in the same sequence, the figures for `CC[C@@H](C1CC1)N1Cc2cc(-c3cnc4[nH]cc(-c5ccncc5)c4c3)cc(C)c2C1=O` were 6 nM, 800 nM, 255 and greater than 414.
Taken in the same sequence, the figures for `COc1cc(-c2c[nH]c3ncc(-c4cc(C)c5c(c4)CN([C@@H](C)C4CC4)C5=O)cc23)ccc1C(=O)O` were 1.5 nM, 170 nM, 369 and 494.
On to `Cc1cc(-c2cnc3[nH]cc(-c4ccc(C#N)cc4)c3c2)cc2c1C(=O)N([C@@H](C)C1CC1)C2`, for which the IC50 in experiment [1] was determined as 42 nM; in experiment [4], 3500 nM. Further, the Selectivity ratio in the experiment listed under Homo sapiens [2] and in the experiment listed under Homo sapiens [3] was greater than 242 in each case.
As to `Cc1cc(-c2cnc3[nH]cc(-c4cc(C)c(C(=O)O)c(C5CC5)c4)c3c2)cc2c1C(=O)N([C@@H](C)C1CC1)C2`, the IC50 amounted to 1.2 nM in experiment [1] and 70 nM in experiment [4]. In addition, the results for the Selectivity ratio in the experiment listed under Homo sapiens [2] and in the experiment listed under Homo sapiens [3] were 691 and 367, respectively.
Taken in the same sequence, the figures for `Cc1cc(-c2cnc3[nH]cc(-c4ccc(C(=O)O)c(C(F)(F)F)c4)c3c2)cc2c1C(=O)N([C@@H](C)C1CC1)C2` were 1.64 nM, 350 nM, 380 and 591.
Take `Cc1cc(-c2cnc3[nH]nnc3c2)cc2c1C(=O)N(C(C)C1CC1)C2` (racemic): the IC50 in experiment [1] is 1600 nM.
As to `Cc1cc(-c2cnc3[nH]cc(-c4ccncc4)c3c2)cc2c1C(=O)N([C@H](C)C1CC1)C2`, the half-maximal inhibitory concentration (IC50) in experiment [1] turned out to be 9 nM.
As to `C[C@@H](C1CC1)N1Cc2cc(-c3cnc4[nH]cc(-c5cnn(C)c5)c4c3)cc(C(F)(F)F)c2C1=O`, the figures for the IC50 in experiment [1] and in experiment [4] were 2.4 nM and 90 nM, respectively. Further, the values for the Selectivity ratio in the experiment listed under Homo sapiens [2] and in the experiment listed under Homo sapiens [3] were 2800 and 266, respectively.
Taken in the same sequence, the figures for `C[C@@H](C1CC1)N1Cc2cc(-c3cnc4[nH]cc(-c5cnn(C)c5)c4c3)cc(NS(C)(=O)=O)c2C1=O` were 4 nM, 150 nM, 449 and 615.
On to `Cc1cc(-c2cnc3[nH]cc(-c4cnn(C)c4)c3c2)cc2c1C(=O)N([C@@H](C)C1CC1)C2`, for which the results for the IC50 in experiment [1] and in experiment [4] were 3.26 nM and 200 nM, respectively. In addition, the Selectivity ratio stood at 898 in the experiment filed under Homo sapiens [2] and 379 in the experiment filed under Homo sapiens [3].
Taken in the same sequence, the figures for `Cc1cc(-c2cnc3[nH]cc(-c4ccncc4)c3c2)cc2c1C(=O)N([C@@H](C)c1ccc(F)cc1)C2` were 40 nM, 2100 nM, 142 and greater than 190.
In the case of `Cc1cc(-c2cnc3[nH]cc(-c4ccncc4)c3c2)cc2c1C(=O)N(C1CCOCC1)C2`, the IC50 in experiment [1] was 50 nM; in experiment [4] it was 1000 nM. Also, the Selectivity ratio in the experiment listed under Homo sapiens [2] was 7; in the experiment filed under Homo sapiens [3], 18.
The like results for `Cc1cc(-c2cnc3[nH]cc(C(=O)O)c3c2)cc2c1C(=O)N([C@@H](C)C1CC1)C2` were, in that order, 13 nM, 11000 nM, greater than 775 and greater than 775.
Taken in the same sequence, the figures for `C[C@@H](C1CC1)N1Cc2cc(-c3cnc4[nH]cc(-c5cnn(C)c5)c4c3)cc(S(C)(=O)=O)c2C1=O` were 1.5 nM, 50 nM, 1020 and 289.
As for `Cc1cc(-c2cnc3[nH]nc(-c4ccncc4)c3c2)cc2c1C(=O)N([C@@H](C)C1CC1)C2`, the IC50 in experiment [1] was 8 nM.
For `COC[C@H](C)N1Cc2cc(-c3cnc4[nH]cc(-c5ccncc5)c4c3)cc(C)c2C1=O`, the concentration for half-maximal inhibition (IC50) in experiment [1] was 9 nM; in experiment [4], 600 nM. In addition, the Selectivity ratio was found to be 51 in the experiment filed under Homo sapiens [2] and 216 in the experiment listed under Homo sapiens [3].
As for `Cc1cc(-c2cnc3[nH]cc(-c4cccnc4)c3c2)cc2c1C(=O)N(C(C)C1CC1)C2` (racemic), the half-maximal inhibitory concentration (IC50) is 7 nM in experiment [1] and 400 nM in experiment [4]. Besides, the Selectivity ratio in the experiment filed under Homo sapiens [2] is 89; in the experiment filed under Homo sapiens [3] it was 112.
Turning to `Cc1cc(-c2cnc3[nH]cc(-c4ccncc4)c3c2)cc2c1C(=O)N(C(C)(C)C)C2`, the half-inhibitory concentration (IC50) is 26 nM in experiment [1] and 720 nM in experiment [4]. The Selectivity ratio was found to be 62 in the experiment listed under Homo sapiens [2] and 107 in the experiment filed under Homo sapiens [3].
Take `Cc1cc(-c2cnc3[nH]cc(-c4ccncc4)c3c2)cc2c1C(=O)N(C(C)(C)C1CC1)C2`: the IC50 in experiment [1] is 28 nM; in experiment [4], 1100 nM. Moreover, the Selectivity ratio in the experiment filed under Homo sapiens [2] was 74; in the experiment filed under Homo sapiens [3], 100.
Consider `C[C@@H](C1CC1)N1Cc2cc(-c3cnc4[nH]cc(-c5cnn(C)c5)c4c3)cc(Cl)c2C1=O`, for which the values for the 50% inhibitory concentration (IC50) in experiment [1] and in experiment [4] were 2.4 nM and 170 nM, respectively. For the same compound, the Selectivity ratio in the experiment filed under Homo sapiens [2] came out at 455; in the experiment listed under Homo sapiens [3], 533.
As for `Cc1cc(-c2cnc3[nH]ccc3c2)cc2c1C(=O)N([C@@H](C)C1CC1)C2`, the IC50 in experiment [1] was found to be 50 nM.
Consider `CNC(=O)c1cc(-c2cnc3[nH]cc(-c4cnn(C)c4)c3c2)cc2c1C(=O)N([C@@H](C)C1CC1)C2`, for which the values for the concentration for half-maximal inhibition (IC50) in experiment [1] and in experiment [4] were 7.9 nM and 730 nM, respectively. Besides, the Selectivity ratio is 1050 in the experiment listed under Homo sapiens [2] and greater than 1180 in the experiment listed under Homo sapiens [3].
The like results for `Cc1cc(-c2cnc3[nH]cc(-c4ccn(C)c(=O)c4)c3c2)cc2c1C(=O)N([C@@H](C)C1CC1)C2` were, in that order, 26 nM, 200 nM, 466 and 128.
On to `Cc1cc(-c2cnc3[nH]cc(-c4ccc(C(=O)O)c(C(C)C)c4)c3c2)cc2c1C(=O)N([C@@H](C)C1CC1)C2`, for which the figures for the concentration for half-maximal inhibition (IC50) in experiment [1] and in experiment [4] were 2.1 nM and 59 nM, respectively. Moreover, the Selectivity ratio was determined as 224 in the experiment listed under Homo sapiens [2] and 344 in the experiment filed under Homo sapiens [3].
The like results for `Cc1cc(-c2cnc3[nH]cc(-c4ccc(C(C)(C)O)nc4)c3c2)cc2c1C(=O)N([C@@H](C)C1CC1)C2` were, in that order, 3.3 nM, 600 nM, 416 and 183.
Taken in the same sequence, the figures for `Cc1cc(-c2cnc3[nH]cc(-c4ccnc(C(F)(F)F)c4)c3c2)cc2c1C(=O)N([C@@H](C)C1CC1)C2` were 16 nM, 4000 nM, greater than 578 and greater than 552.
As for `Cc1cc(-c2cnc3cn[nH]c3c2)cc2c1C(=O)N(C(C)C1CC1)C2` (racemic), the IC50 in experiment [1] amounted to 490 nM.
Consider `Cc1cc(-c2cnc3[nH]cc(-c4ccc(C(=O)O)c(F)c4)c3c2)cc2c1C(=O)N([C@@H](C)C1CC1)C2`, for which the values for the half-maximal inhibitory concentration (IC50) in experiment [1] and in experiment [4] were 3.1 nM and 700 nM, respectively. For the same compound, the figures for the Selectivity ratio in the experiment filed under Homo sapiens [2] and in the experiment filed under Homo sapiens [3] were 546 and 1050, respectively.
On to `CC(C)c1cc(-c2cnc3[nH]cc(-c4cnn(C)c4)c3c2)cc2c1C(=O)N([C@@H](C)C1CC1)C2`, for which the values for the 50% inhibitory concentration (IC50) in experiment [1] and in experiment [4] were 4.2 nM and 300 nM, respectively. Moreover, the Selectivity ratio in the experiment listed under Homo sapiens [2] amounted to 898; in the experiment listed under Homo sapiens [3], 1380.
The like results for `Cc1cc(-c2cnc3[nH]cc(C(=O)Nc4ccncc4)c3c2)cc2c1C(=O)N([C@@H](C)C1CC1)C2` were, in that order, 12 nM, 1300 nM, greater than 856 and greater than 856.
Taken in the same sequence, the figures for `Cc1cc(-c2cnc3[nH]cc(-c4ccc(C(=O)O)c(N5CCCC5)c4)c3c2)cc2c1C(=O)N([C@@H](C)C1CC1)C2` were 4 nM, 170 nM, 853 and 49.
As for `Cc1cc(-c2cnc3[nH]cc(-c4ccccn4)c3c2)cc2c1C(=O)N([C@@H](C)C1CC1)C2`, the 50% inhibitory concentration (IC50) in experiment [1] is 33 nM; in experiment [4] it was 3500 nM. Besides, the Selectivity ratio in the experiment listed under Homo sapiens [2] and in the experiment listed under Homo sapiens [3] was greater than 308 each time.
On to `Cc1cc(-c2cnc3[nH]ncc3c2)cc2c1C(=O)N([C@@H](C)C1CC1)C2`, for which the IC50 in experiment [1] amounted to 35 nM.
In the case of `Cc1cc(-c2cnc3[nH]cc(-c4ccncc4)c3c2)cc2c1C(=O)N(C(C1CC1)C1CC1)C2`, the results for the 50% inhibitory concentration (IC50) in experiment [1] and in experiment [4] were 6.8 nM and 800 nM, respectively. The Selectivity ratio in the experiment filed under Homo sapiens [2] is 253; in the experiment listed under Homo sapiens [3], 901.
`Cc1cc(-c2cnc3[nH]ncc3n2)cc2c1C(=O)N([C@@H](C)C1CC1)C2`: the 50% inhibitory concentration (IC50) in experiment [1] came out at 80 nM.
As to `Cc1cc(-c2cnc3[nH]cc(-c4ccc(C(N)=O)cc4)c3c2)cc2c1C(=O)N([C@@H](C)C1CC1)C2`, the concentration for half-maximal inhibition (IC50) in experiment [1] is 2.59 nM; in experiment [4], 230 nM. The Selectivity ratio in the experiment filed under Homo sapiens [2] amounted to 711; in the experiment filed under Homo sapiens [3], 226.
Take `Cc1cc(-c2cnc3[nH]c(=O)ccc3c2)cc2c1C(=O)N(C(C)C1CC1)C2` (racemic): the IC50 in experiment [1] was found to be 530 nM.
Regarding `Cc1cc(-c2cnc3[nH]cc(C(=O)NC4CCOCC4)c3c2)cc2c1C(=O)N([C@@H](C)C1CC1)C2`, the values for the half-maximal inhibitory concentration (IC50) in experiment [1] and in experiment [4] were 4.5 nM and 320 nM, respectively. In addition, the Selectivity ratio in the experiment listed under Homo sapiens [2] was greater than 2240; in the experiment listed under Homo sapiens [3], 1030.
For the compound `Cc1cc(-c2cnc3[nH]ncc3c2)cc2c1C(=O)N(C(C)C1CC1)C2` (racemic), in experiment [1], the IC50 was 90 nM.
Same read-out and setting: the same measure for `Cc1cc(-c2cnc3c(c2)CC(=O)N3)cc2c1C(=O)N(C(C)C1CC1)C2` (racemic): 600 nM.
